Test results taken from patent US7601722B2, “Aryl sulfamide derivatives and methods of their use” (Wyeth, priority 2006, dated 2009).
Structures can show the parent of a compound that is named as a salt.

Columns and labels:
[1] = Rat Liver Microsomal Stability Assay; assay type: in vitro ADME; details: pH 7.4; rat liver microsomes, 37° C., NADPH, Time 0 and Time 15 min; read-out: RLM stability t1/2
Procedure: Rat Liver Microsomal Stability Assay:
DMSO stock solutions of test compounds were prepared at 0.5 mM concentration. Diluted solutions of test compounds were prepared by adding 50 uL of each DMSO stock solution to 200 uL of acetonitrile to make 0.1 mM solutions in 20% DMSO/80% acetonitrile. Rat liver microsomal solution was prepared by adding 1.582 mL of concentrated rat liver microsomes (20 mg/mL protein concentration) to 48.291 mL of pre-warmed (to 37° C.) 0.1M potassium phosphate buffer (pH 7.4) containing 127 uL of 0.5 M EDTA to make a 0.6329 mg/mL (protein) microsomal solution. 11.2 uL of each test compound diluted solution was each added directly to 885 uL of rat liver microsomal solution (allowing direct binding of drugs to microsomal proteins and lipids to minimize precipitation and non-specific binding to the plasticware). This solution was mixed and 180 uL was transferred to “Time 0” and “Time 15 min” plates (each in duplicate wells). For the Time 15 min plate, NADPH regenerating agent (45 uL) was added to each well to initiate the reaction, the plate was incubated at 37° C. for 15 min, followed by quenching of the reaction by adding 450 uL of cold acetonitrile to each well. For the Time 0 plate, 450 uL of cold acetonitrile was added to each well, followed by addition of NADPH regenerating agent (45 uL) and no incubation. All of the plates were centrifuged at 3000 rpm for 15 min and the supernatants were transferred to other well plates for analysis by LC-MS.

[2] = biological target: Dopamine Transporter (hDAT) (Homo sapiens, UniProt Q01959); assay: Dopamine Transporter (hDAT) Membrane Binding Assay
hNET = hNET (Homo sapiens, UniProt P23975); assay: hNET binding according to Mahaney et al.; details: hNET binding per footnote, printed in the NE uptake column
[3] = biological target: T1, Cloned Human NE Transporters (Homo sapiens, UniProt P23975); assay: hNET Assay Procedure Protocol A: inhibition of [3H] NE uptake (MDCK cells) (hNET uptake); assay type: cell-based; details: MDCK cells expressing hNET, [3H] NE 16 nM
T1 construct: expressed in transfected cells; host or cells: MDCK
Procedure: hNET Assay Procedure Protocol A: Inhibition of [^3H] NE Uptake into Cloned Human NE Transporters (MDCK Cells) (“hNET uptake”)
[^3H] […] Cells were seeded at 300,000/T75 flask, and split twice weekly.
All uptake experiments were performed in 96-well plates (Falcon Optilux, cat #353947) in a total volume of 250 μl/well. MDCK cells were plated at 50,000 cells/well. […] 25 μl of each test compound was subsequently added to plates in triplicate and incubated at 37° C. for 5 minutes. All test compounds were dissolved in 100% DMSO and diluted in 4% DMSO/H2O, and assayed using a 7-point dose response curve (1 nM-10 μM). Next, 25 μl of [^3H] NE (74.9 Ci/mmol, Perkin Elmer, Boston, Mass.) was added to all wells and incubated at 37° C. for an additional 5 minutes. Non-specific uptake was defined by 20 μM desipramine. The final concentrations of [^3H] NE was 16 nM, respectively. The reaction was terminated by aspiration and washed with ice cold 50 mM Tris (pH 7.4). […] 100 μl of Microscint-20 were added to each well (Packard, Perkin Elmer, Boston, Mass.), and the plates were counted using a TopCount (Perkin Elmer, Downer's Grove, Ill.) liquid scintillation counter. […]
IC50 values were calculated using a Prism® nonlinear regression program where % inhibition is plotted versus concentration of inhibitor.

Dopamine Transporter (hDAT), sequence (Q01959 whole entry): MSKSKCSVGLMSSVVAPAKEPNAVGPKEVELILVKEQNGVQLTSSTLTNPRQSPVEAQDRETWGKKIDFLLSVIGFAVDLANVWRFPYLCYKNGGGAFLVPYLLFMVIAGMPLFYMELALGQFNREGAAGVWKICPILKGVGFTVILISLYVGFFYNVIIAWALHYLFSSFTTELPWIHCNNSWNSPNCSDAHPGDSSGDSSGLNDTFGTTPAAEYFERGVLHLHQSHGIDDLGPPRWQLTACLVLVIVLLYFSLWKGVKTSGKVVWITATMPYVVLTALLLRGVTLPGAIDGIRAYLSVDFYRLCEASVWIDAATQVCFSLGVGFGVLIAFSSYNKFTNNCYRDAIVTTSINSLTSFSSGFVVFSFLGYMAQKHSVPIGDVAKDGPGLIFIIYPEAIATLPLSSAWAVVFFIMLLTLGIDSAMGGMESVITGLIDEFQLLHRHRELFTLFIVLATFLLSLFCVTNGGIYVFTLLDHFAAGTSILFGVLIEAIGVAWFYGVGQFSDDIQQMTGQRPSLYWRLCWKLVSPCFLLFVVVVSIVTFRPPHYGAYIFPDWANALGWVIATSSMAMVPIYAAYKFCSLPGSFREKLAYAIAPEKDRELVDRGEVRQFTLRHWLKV
hNET, sequence (P23975 whole entry): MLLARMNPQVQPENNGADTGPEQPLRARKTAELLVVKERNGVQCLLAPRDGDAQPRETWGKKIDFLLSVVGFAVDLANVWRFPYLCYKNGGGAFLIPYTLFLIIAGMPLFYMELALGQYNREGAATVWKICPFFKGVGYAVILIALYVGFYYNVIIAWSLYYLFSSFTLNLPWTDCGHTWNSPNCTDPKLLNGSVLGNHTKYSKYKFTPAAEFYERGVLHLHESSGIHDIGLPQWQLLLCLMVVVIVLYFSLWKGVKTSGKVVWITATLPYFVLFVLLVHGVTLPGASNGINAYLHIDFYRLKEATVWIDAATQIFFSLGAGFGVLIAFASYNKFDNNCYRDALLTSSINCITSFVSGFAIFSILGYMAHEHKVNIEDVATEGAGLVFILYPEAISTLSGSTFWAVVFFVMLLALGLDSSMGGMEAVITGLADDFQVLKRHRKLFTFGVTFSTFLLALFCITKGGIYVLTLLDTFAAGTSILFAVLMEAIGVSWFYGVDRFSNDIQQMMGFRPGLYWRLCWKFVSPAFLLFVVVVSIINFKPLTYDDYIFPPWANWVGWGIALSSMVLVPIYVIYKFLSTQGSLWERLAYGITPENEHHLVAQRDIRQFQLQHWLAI
T1 sequence (P23975 whole entry): as above

SMILES | half-life at 1 µM [1] | IC50 [2] | further results
O=S1(=O)N(CC[C@H]2CNCCO2)c2ccccc2N1c1ccc(F)cc1F [Example 141, 1-(2,4-difluorophenyl)-3-{2-[(2S)-morpholin-2-yl]ethyl}-1,3-dihydro-2,1,3-benzothiadiazole2,2-dioxide] | 2 min |  | 
O=S1(=O)N(CC[C@H]2CNCCO2)c2ccccc2N1c1ccccc1F [Example 148, 1-(2-fluorophenyl)-3-{2-[(2S)-morpholin-2-yl]ethyl}-1,3-dihydro-2,1,3-benzothiadiazole2,2-dioxide] | 4 min | 1400 nM | 
O=S1(=O)N(CC[C@@H]2CNCCO2)c2ccccc2N1c1ccccc1F [Example 149, 1-(2-fluorophenyl)-3-{2-[(2R)-morpholin-2-yl]ethyl}-1,3-dihydro-2,1,3-benzothiadiazole2,2-dioxide] | 5 min | 2190 nM | 
CN(C)CCOCCN1c2ccccc2N(c2ccc(F)cc2F)S1(=O)=O [Example 170, 2-{2-[3-(2,4-difluorophenyl)-2,2-dioxido-2,1,3-benzothiadiazol-1(3H)-yl]ethoxy}-N,N-dimethylethanamine hydrochloride] |  |  | IC50 (hNET): 207 nM
O=S1(=O)N(CC[C@@H]2CNCCO2)c2ccccc2N1c1ccc(F)cc1 [Example 139, 1-(4-fluorophenyl)-3-{2-[(2R)-morpholin-2-yl]ethyl}-1,3-dihydro-2,1,3-benzothiadiazole2,2-dioxide] | 10 min |  | 
O=S1(=O)N(CCCCN2CCOCC2)c2ccccc2N1c1ccc(Cl)cc1 [Example 180, 1-(4-chlorophenyl)-3-(4-morpholin-4-ylbutyl)-1,3-dihydro-2,1,3-benzothiadiazole2,2-dioxide] |  |  | IC50 [3]: 1760 nM
O=S1(=O)N(CC[C@@H]2CNCCO2)c2ccccc2N1c1ccccc1 [Example 136, 1-{2-[(2R)-morpholin-2-yl]ethyl}-3-phenyl-1,3-dihydro-2,1,3-benzothiadiazole2,2-dioxide] | 3 min | 598 nM | 
NCC1CCN(CCN2c3ccccc3N(c3ccccc3)S2(=O)=O)C1 (stereo not shown) [Example 105, 1-{1-[2-(2,2-dioxido-3-phenyl-2,1,3-benzothiadiazol-1(3H)-yl)ethyl]pyrrolidin-3-yl}methanamine dihydrochloride] |  |  | IC50 (hNET): 289 nM
O=S1(=O)N(CC[C@H]2CNCCO2)c2ccccc2N1c1c(F)cccc1F [Example 150, 1-(2,6-difluorophenyl)-3-{2-[(2S)-morpholin-2-yl]ethyl}-1,3-dihydro-2,1,3-benzothiadiazole2,2-dioxide] | 3 min |  | 
COc1cccc(N2c3ccccc3N(CC[C@H]3CNCCO3)S2(=O)=O)c1 [Example 146, 1-(3-methoxyphenyl)-3-{2-[(2S)-morpholin-2-yl]ethyl}-1,3-dihydro-2,1,3-benzothiadiazole2,2-dioxide] | 5 min |  | 
O=S1(=O)N(CCC2CNCCO2)c2ccccc2N1c1ccc(F)cc1 (stereo not shown) [Example 137, 1-(4-fluorophenyl)-3-(2-morpholin-2-ylethyl)-1,3-dihydro-2,1,3-benzothiadiazole 2,2-dioxide] | 9 min |  | 
O=S1(=O)N(CC[C@H]2CNCCO2)c2ccccc2N1c1ccccc1 [Example 135, 1-{2-[(2S)-morpholin-2-yl]ethyl}-3-phenyl-1,3-dihydro-2,1,3-benzothiadiazole2,2-dioxide] | 5 min | 479 nM | 
